Active and inactive are the calls of the source. The calls are words filed in the database; no cut-off is given here.
How the values were obtained:
CCRF S-180 [1] = experiment: Antitumor activity against mouse S180 cells allografted in ICR mouse assessed as tumor growth inhibition at 2 umol/kg, ip qd for 7 days measured 24 hrs after last dose; assay type: functional, organism-based
HepG2 [2] = experiment: Drug uptake in human HepG2 cells at 10^-10 M after 15 to 240 mins by fluorescence assay; assay type: ADME, cell-based; conditions: hepg2, 0.0001 µM
HepG2 [3] = experiment: Cytotoxicity against human HepG2 cells after 48 hrs by MTT assay; assay type: functional, cell-based; conditions: HepG2, 48 h
CCRF S-180 [4] = experiment: Antitumor activity against mouse S180 cells allografted in ICR mouse assessed as tumor growth inhibition at 4 umol/kg, po qd for 7 days measured 24 hrs after last dose; assay type: functional, organism-based
CCRF S-180 [5] = experiment: Antitumor activity against mouse S180 cells allografted in ICR mouse assessed as tumor growth inhibition administered as po qd for 7 days measured 24 hrs after last dose; assay type: functional
HT-29 = experiment: Cytotoxicity against human HT-29 cells after 48 hrs by MTT assay; assay type: functional, cell-based; conditions: HT-29, 48 h
CCRF S-180 [6] = experiment: Antitumor activity against mouse S180 cells allografted in ICR mouse assessed as decrease of uPA levels in serum administered as po qd for 7 days measured 24 hrs after last dose; assay type: functional, organism-based
SW480 = experiment: Cytotoxicity against human SW480 cells after 48 hrs by MTT assay; assay type: functional, cell-based; conditions: SW480, 48 h
HeLa = experiment: Cytotoxicity against human HeLa cells after 48 hrs by MTT assay; assay type: functional, cell-based
HL-60 = experiment: Cytotoxicity against human HL60 cells after 48 hrs by MTT assay; assay type: functional, cell-based; conditions: HL-60, 48 h

| Drug uptake (HepG2 [2]) | Compound | inhibition (CCRF S-180 [1]) | IC50 (HepG2 [3]) | inhibition (CCRF S-180 [4]) | MED (CCRF S-180 [5]) | inhibition (CCRF S-180 [5]) | IC50 (HT-29) | Activity (CCRF S-180 [6]) | IC50 (SW480) | IC50 (HeLa) | IC50 (HL-60) |
| --- | --- | --- | --- | --- | --- | --- | --- | --- | --- | --- | --- |
| – | COc1cccc2c1C(=O)c1c(O)c3c(c(O)c1C2=O)C[C@@](O)(C(=O)CO)C[C@@H]3O[C@H]1C[C@H](N)[C@H](O)[C@H](C)O1 | Active | – | – | – | – | – | – | – | – | – |
| Active | C[C@H](O)[C@H](NC(=O)[C@H](Cc1c[nH]c2ccccc12)NCC[C@H]1c2[nH]c3ccccc3c2C[C@H]2C(=O)N3CCC[C@H]3C(=O)N21)C(=O)OCc1ccccc1 | – | > 60 µM | Active | 0.16 µmol/kg | Dose-dependent effect | > 20 µM | Dose-dependent effect | > 100 µM | > 100 µM | > 10 µM |

Source: ChEMBL document CHEMBL3621055, “Mechanism of forming trimer, self-assembling nano-particle and inhibiting tumor growth of small molecule CIPPCT” (Medchemcomm, 2014)
